In ChEMBL document CHEMBL3885861, “Open TG-GATES”:

Species on record: Rattus norvegicus
Assay: Open TG-GATES - Regimen: Daily Repeat
Assay type: toxicity, organism-based, Sprague-Dawley
Parameters: regimen Daily Repeat, gender Male, age 6 weeks
Details: in vivo, po, 30 mg/kg, route gavage, dose level Middle; for APTT / Bas / Eos / Fbg / Hb / Ht / Lym / MCH / MCHC / MCV / Mono / Neu / PT / Plat / RBC / Ret / WBC: tissue Blood; for KIDNEY_L / KIDNEY_R / KIDNEY_TOTAL: tissue Kidney; for LIVER: tissue Liver; for A/G / ALP / ALT / AST / BUN / CRE / Ca / Cl / DBIL / GLC / IP / K / LDH / Na / PL / RALB / TBIL / TC / TG / TP / gamma-GTP: tissue Plasma

CCC1(c2ccccc2)C(=O)NC(=O)NC1=O [PHENOBARBITAL]
TERMINAL_BW (72 h, time 3 day): 222.1 g
APTT (72 h, time 3 day): 15.2 s
Bas (72 h, time 3 day): 0%
Eos (72 h, time 3 day): 0.6%
Fbg (72 h, time 3 day): 228.4 mg/dL
Hb (72 h, time 3 day): 13.5 g/dL
Ht (72 h, time 3 day): 40.1%
Lym (72 h, time 3 day): 81.2%
MCH (72 h, time 3 day): 21.8 pg
MCHC (72 h, time 3 day): 33.7%
MCV (72 h, time 3 day): 64.9 fL
Mono (72 h, time 3 day): 6.4%
Neu (72 h, time 3 day): 12%
PT (72 h, time 3 day): 11.2 s
Plat (72 h, time 3 day): 118.8 x10_4/uL
RBC (72 h, time 3 day): 618 x10_4/ul
Ret (72 h, time 3 day): 7.6%
WBC (72 h, time 3 day): 95.1 x10_2/uL
KIDNEY_L (72 h, time 3 day): 0.9 g
KIDNEY_R (72 h, time 3 day): 0.9 g
KIDNEY_TOTAL (72 h, time 3 day): 1.9 g
LIVER (72 h, time 3 day): 12.5 g
A/G (72 h, time 3 day): 1.6
ALP (72 h, time 3 day): 932 IU/L
ALT (72 h, time 3 day): 36.6 IU/L
AST (72 h, time 3 day): 63.2 IU/L
BUN (72 h, time 3 day): 17.2 mg/dL
CRE (72 h, time 3 day): 0.6 mg/dL
Ca (72 h, time 3 day): 11.2 mg/dL
Cl (72 h, time 3 day): 105.2 meq/L
DBIL (72 h, time 3 day): 0.026 mg/dL
GLC (72 h, time 3 day): 201 mg/dL
IP (72 h, time 3 day): 9.2 mg/dL
K (72 h, time 3 day): 4.5 meq/L
LDH (72 h, time 3 day): 128.8 IU/L
Na (72 h, time 3 day): 139.8 meq/L
PL (72 h, time 3 day): 168.6 mg/dL
RALB (72 h, time 3 day): 3.6 g/dL
TBIL (72 h, time 3 day): 0.4 mg/dL
TC (72 h, time 3 day): 92 mg/dL
TG (72 h, time 3 day): 116.4 mg/dL
TP (72 h, time 3 day): 5.9 g/dL
gamma-GTP (72 h, time 3 day): 1.2 IU/L
TERMINAL_BW ([…], time 7 day): 261.6 g
TERMINAL_BW ([…], time 14 day): 299.2 g
TERMINAL_BW ([…], time 28 day): 388.6 g
APTT ([…], time 7 day): 15.6 s
Bas ([…], time 7 day): 0%
Eos ([…], time 7 day): 0.2%
Fbg ([…], time 7 day): 242.4 mg/dL
Hb ([…], time 7 day): 13.6 g/dL
Ht ([…], time 7 day): 40.8%
Lym ([…], time 7 day): 80.8%
MCH ([…], time 7 day): 21.6 pg
MCHC ([…], time 7 day): 33.3%
MCV ([…], time 7 day): 64.9 fL
Mono ([…], time 7 day): 6.6%
Neu ([…], time 7 day): 12%
PT ([…], time 7 day): 11.6 s
Plat ([…], time 7 day): 120.5 x10_4/uL
RBC ([…], time 7 day): 629.6 x10_4/ul
Ret ([…], time 7 day): 6.9%
WBC ([…], time 7 day): 121 x10_2/uL
APTT ([…], time 14 day): 17.6 s
Bas ([…], time 14 day): 0%
Eos ([…], time 14 day): 0%
Fbg ([…], time 14 day): 229 mg/dL
Hb ([…], time 14 day): 14.6 g/dL
Ht ([…], time 14 day): 44.3%
Lym ([…], time 14 day): 88%
MCH ([…], time 14 day): 20.3 pg
MCHC ([…], time 14 day): 33%
MCV ([…], time 14 day): 61.5 fL
Mono ([…], time 14 day): 3%
Neu ([…], time 14 day): 8.4%
PT ([…], time 14 day): 11.6 s
Plat ([…], time 14 day): 114.8 x10_4/uL
RBC ([…], time 14 day): 720.6 x10_4/ul
Ret ([…], time 14 day): 4.8%
WBC ([…], time 14 day): 130.2 x10_2/uL
APTT ([…], time 28 day): 18.2 s
Bas ([…], time 28 day): 0%
Eos ([…], time 28 day): 1%
Fbg ([…], time 28 day): 215 mg/dL
Hb ([…], time 28 day): 15.1 g/dL
Ht ([…], time 28 day): 45%
Lym ([…], time 28 day): 82.6%
MCH ([…], time 28 day): 19.5 pg
MCHC ([…], time 28 day): 33.6%
MCV ([…], time 28 day): 58 fL
Mono ([…], time 28 day): 5.2%
Neu ([…], time 28 day): 11.6%
PT ([…], time 28 day): 12.2 s
Plat ([…], time 28 day): 103 x10_4/uL
RBC ([…], time 28 day): 777.2 x10_4/ul
Ret ([…], time 28 day): 3%
WBC ([…], time 28 day): 150 x10_2/uL
KIDNEY_L ([…], time 7 day): 1.1 g
KIDNEY_R ([…], time 7 day): 1.1 g
KIDNEY_TOTAL ([…], time 7 day): 2.2 g
KIDNEY_L ([…], time 14 day): 1.2 g
KIDNEY_R ([…], time 14 day): 1.2 g
KIDNEY_TOTAL ([…], time 14 day): 2.3 g
KIDNEY_L ([…], time 28 day): 1.3 g
KIDNEY_R ([…], time 28 day): 1.3 g
KIDNEY_TOTAL ([…], time 28 day): 2.7 g
LIVER ([…], time 7 day): 14.7 g
LIVER ([…], time 14 day): 15.9 g
LIVER ([…], time 28 day): 18 g
A/G ([…], time 7 day): 1.5
ALP ([…], time 7 day): 888 IU/L
ALT ([…], time 7 day): 29.8 IU/L
AST ([…], time 7 day): 58.4 IU/L
BUN ([…], time 7 day): 18.8 mg/dL
CRE ([…], time 7 day): 0.6 mg/dL
Ca ([…], time 7 day): 11 mg/dL
Cl ([…], time 7 day): 106.4 meq/L
DBIL ([…], time 7 day): 0.042 mg/dL
GLC ([…], time 7 day): 204 mg/dL
IP ([…], time 7 day): 8.8 mg/dL
K ([…], time 7 day): 4.6 meq/L
LDH ([…], time 7 day): 95 IU/L
Na ([…], time 7 day): 140.8 meq/L
PL ([…], time 7 day): 157 mg/dL
RALB ([…], time 7 day): 3.6 g/dL
TBIL ([…], time 7 day): 0.4 mg/dL
TC ([…], time 7 day): 85 mg/dL
TG ([…], time 7 day): 115.2 mg/dL
TP ([…], time 7 day): 6 g/dL
gamma-GTP ([…], time 7 day): 1.2 IU/L
A/G ([…], time 14 day): 1.4
ALP ([…], time 14 day): 718.2 IU/L
ALT ([…], time 14 day): 27.6 IU/L
AST ([…], time 14 day): 61.8 IU/L
BUN ([…], time 14 day): 19.6 mg/dL
CRE ([…], time 14 day): 0.6 mg/dL
Ca ([…], time 14 day): 10.9 mg/dL
Cl ([…], time 14 day): 107 meq/L
DBIL ([…], time 14 day): 0.008 mg/dL
GLC ([…], time 14 day): 205.8 mg/dL
IP ([…], time 14 day): 8.5 mg/dL
K ([…], time 14 day): 4.2 meq/L
LDH ([…], time 14 day): 84.6 IU/L
Na ([…], time 14 day): 142 meq/L
PL ([…], time 14 day): 148.4 mg/dL
RALB ([…], time 14 day): 3.8 g/dL
TBIL ([…], time 14 day): 0.3 mg/dL
TC ([…], time 14 day): 79.2 mg/dL
TG ([…], time 14 day): 116.2 mg/dL
TP ([…], time 14 day): 6.5 g/dL
gamma-GTP ([…], time 14 day): 1 IU/L
A/G ([…], time 28 day): 1.5
ALP ([…], time 28 day): 631.8 IU/L
ALT ([…], time 28 day): 32.2 IU/L
AST ([…], time 28 day): 58.6 IU/L
BUN ([…], time 28 day): 20.6 mg/dL
CRE ([…], time 28 day): 0.4 mg/dL
Ca ([…], time 28 day): 10.4 mg/dL
Cl ([…], time 28 day): 108 meq/L
DBIL ([…], time 28 day): 0.03 mg/dL
GLC ([…], time 28 day): 194.4 mg/dL
IP ([…], time 28 day): 7.5 mg/dL
K ([…], time 28 day): 4.8 meq/L
LDH ([…], time 28 day): 70 IU/L
Na ([…], time 28 day): 139.6 meq/L
PL ([…], time 28 day): 143.4 mg/dL
RALB ([…], time 28 day): 3.8 g/dL
TBIL ([…], time 28 day): 0.4 mg/dL
TC ([…], time 28 day): 76.8 mg/dL
TG ([…], time 28 day): 88.8 mg/dL
TP ([…], time 28 day): 6.3 g/dL
gamma-GTP ([…], time 28 day): 2.6 IU/L
